Columns and labels:
Assay type in all cases: in vivo
[1] = test system: adult engorged female ticks (Rhipicephalus microplus); assay: Rhipicephalus (Boophilus) microplus injection test; conditions: 168 h, egg deposition after 7 days, read-out: efficacy (infertile eggs); for pest or weed control at 0.004 mg: 4 μg/animal; for pest or weed control at 0.02 mg: 20 μg/animal
Experimental: Solvent: dimethyl sulfoxide
To produce a suitable preparation of active compound, 10 mg of active compound are dissolved in 0.5 mL solvent, and the concentrate is diluted with solvent to the desired concentration.
Five adult engorged female ticks (Rhipicephalus microplus) are injected with 1 μL compound solution into the abdomen. The ticks are transferred into replica plates and incubated in a climate chamber.
After 7 days egg deposition of fertile eggs is monitored. Eggs where fertility is not visible are stored in a climate chamber till hatching after about 42 days. An efficacy of 100% means all eggs are infertile; 0% means all eggs are fertile.

[2] = test system: larvae of the banded cucumber beetle (Diabrotica balteata); assay: Diabrotica balteata spray test; conditions: 168 h, after 7 days, wheat seeds, read-out: efficacy (seedlings grown up); for pest or weed control at 160 µg/disc, 500 g/ha: 500 g/ha (=160 μg/well); for pest or weed control at 32 µg/disc, 100 g/ha: 100 g/ha (=32 μg/well)
Experimental: (§1) Solvent: 78.0 parts by weight of acetone • • 1.5 parts by weight of dimethylformamide
(§2) Emulsifier: alkylarylpolyglycol ether
(§3) To produce a suitable preparation of active compound, 1 part by weight of active compound is mixed with the stated amount of solvent, and the concentrate is diluted with water, containing an emulsifier concentration of 1000 ppm, to the desired concentration. Further test concentrations are prepared by dilution with emulsifier containing water.
Soaked wheat seeds (Triticum aestivum) are placed in a multiple well plate filled with agar and some water and are incubated for 1 day to germinate (5 seeds per well). The germinated wheat seeds are sprayed with a test solution containing the desired concentration of the active ingredient. Afterwards each unit is infected with 10-20 larvae of the banded cucumber beetle (Diabrotica balteata).
After 7 days efficacy in % is determined. 100% means all the seedlings have grown up like in the untreated, uninfected control; 0% means none of the seedlings have grown.

[3] = test system: fall armyworm larvae (Spodoptera frugiperda); assay: Spodoptera frugiperda spray test (maize leaf sections); conditions: 168 h
Experimental: Solvent: 78.0 parts by weight acetone • 1.5 parts by weight dimethylformamide
as §2
To produce a suitable preparation of active compound, 1 part by weight of active compound is mixed with the stated amount of solvents and is diluted with water, containing an emulsifier concentration of 1000 ppm, to the desired concentration. Further test concentrations are prepared by dilution with emulsifier containing water.
Maize (Zea mays) leaf sections are sprayed with a preparation of the active ingredient of the desired concentration. Once dry, the leaf sections are infested with fall armyworm larvae (Spodoptera frugiperda).
After 7 days mortality in % is determined. 100% means all caterpillars have been killed and 0% means none of the caterpillars have been killed.

[4] = test system: larvae of the southern green stink bug (Nezara viridula); assay: Nezara viridula spray test; conditions: in Hordeum vulgare, 96 h
Experimental: as §1, §2, §3
Barley plants (Hordeum vulgare) infested with larvae of the southern green stink bug (Nezara viridula) are sprayed with a test solution containing the desired concentration of the active ingredient.
After 4 days mortality in % is determined. 100% means all the stink bugs have been killed; 0% means none of the stink bugs have been killed.

Structure (SMILES) | mortality at 500 g/ha [4] | pest or weed control at 32 µg/disc, 100 g/ha [2] | mortality at 100 g/ha [3] | further results
CC(NC(=O)c1cc(Cl)cc(C(F)(F)F)c1)c1nc(NC(=O)OC(C)(C)C)nn1-c1ncccn1 (racemic) [I-001, tert-butyl N-[5-[1-[[3-chloro-5-(trifluoromethyl)benzoyl]amino]ethyl]-1-pyrimidin-2-yl-1,2,4-triazol-3-yl]carbamate] |  |  |  | pest or weed control at 0.004 mg [1]: 100%; pest or weed control at 0.02 mg [1]: 100%; pest or weed control at 160 µg/disc, 500 g/ha [2]: 100%; mortality at 500 g/ha [3]: 100%
CC(NC(=O)c1cc(Cl)cc(S(C)(=O)=O)c1)c1nc(N(S(C)(=O)=O)S(C)(=O)=O)nn1-c1ccc(Cl)cn1 (racemic) [I-026, N-[1-[5-[bis(methylsulfonyl)amino]-2-(5-chloro-2-pyridyl)-1,2,4-triazol-3-yl]ethyl]-3-chloro-5-methylsulfonyl-benzamide] | 90% |  |  | pest or weed control at 0.004 mg [1]: 100%; pest or weed control at 0.02 mg [1]: 100%; pest or weed control at 160 µg/disc, 500 g/ha [2]: 100%
CC(NC(=O)c1cc(Cl)cc(S(C)(=O)=O)c1)c1nc(NC(=O)OC(C)(C)C)nn1-c1ccc(Cl)cn1 (stereo not shown) [I-002] |  |  |  | pest or weed control at 0.004 mg [1]: 100%; pest or weed control at 0.02 mg [1]: 100%
CC(NC(=O)c1cc(Cl)cc(C(F)(F)F)c1)c1nc(-c2ccc(Cl)nc2)nn1-c1ncccn1 (stereo not shown) [I-043] |  |  |  | pest or weed control at 0.004 mg [1]: 80%
CC(NC(=O)c1cc(Cl)cc(S(C)(=O)=O)c1)c1nc(-c2ncccn2)nn1-c1ncccn1 (stereo not shown) [I-052] |  |  |  | pest or weed control at 0.004 mg [1]: 100%; pest or weed control at 0.02 mg [1]: 100%
CC(NC(=O)c1cc(Cl)cc(S(C)(=O)=O)c1)c1nc(SCC(F)(F)F)nn1-c1ccc(Cl)cn1 (stereo not shown) [I-065] |  |  |  | pest or weed control at 0.004 mg [1]: 100%; pest or weed control at 0.02 mg [1]: 100%
CC(NC(=O)c1cc(Cl)cc(C(F)(F)F)c1)c1nc(SCC(F)(F)F)nn1-c1ccc(Cl)cn1 (stereo not shown) [I-067] |  |  |  | pest or weed control at 0.02 mg [1]: 100%
CC(NC(=O)c1cc(Cl)cc(C(F)(F)F)c1)c1nc([S+]([O-])CC(F)(F)F)nn1-c1ccc(Cl)cn1 (stereo not shown) [I-068] |  |  |  | pest or weed control at 0.004 mg [1]: 80%; pest or weed control at 0.02 mg [1]: 100%
CC(NC(=O)c1cc(Cl)cc(S(C)(=O)=O)c1)c1nc(Cc2ccccc2)nn1-c1ncccn1 (stereo not shown) [I-084] |  |  |  | mortality at 100 g/ha [4]: 90%
CC(NC(=O)c1cc(C(F)(F)F)cc(C(F)(F)F)c1)c1nc(Cc2c(F)cccc2F)nn1-c1ncccn1 (stereo not shown) [I-086] |  | 100% |  | 
CC(NC(=O)c1cc(C(F)(F)F)cc(C(F)(F)F)c1)c1nc(NC(=O)OC(C)(C)C)nn1-c1ccc(C#N)cn1 (stereo not shown) [I-096] |  |  |  | pest or weed control at 0.004 mg [1]: 100%
CC(NC(=O)c1cc(Br)cc(Br)c1)c1nc(NC(=O)OC(C)(C)C)nn1-c1ccc(C#N)cn1 (stereo not shown) [I-098] |  |  |  | pest or weed control at 0.004 mg [1]: 100%
CC(NC(=O)c1cc(Br)cc(C(F)(F)F)c1)c1nc(NC(=O)OC(C)(C)C)nn1-c1ccc(C#N)cn1 (stereo not shown) [I-102] |  |  |  | pest or weed control at 0.004 mg [1]: 100%
CON(C)c1nc([C@H](C)NC(=O)c2cc(Br)cc(Br)c2)n(-c2ncccn2)n1 [I-150] |  | 100% | 100% | 
CC(NC(=O)c1cc(Cl)cc(C(C)(C)C#N)c1)c1nc(N(C)C)nn1-c1ccc(C#N)cn1 (stereo not shown) [I-156] | 100% | 100% | 100% | 
CC(NC(=O)c1cc(Cl)cc(S(C)(=O)=O)c1)c1nc(N(C)C)nn1-c1ccc(C#N)cn1 (stereo not shown) [I-157] | 90% |  |  | 
CC(NC(=O)c1cc(C(F)(F)F)cc(C(F)(F)F)c1)c1nc(N(C)C)nn1-c1ccc(C#N)cn1 (stereo not shown) [I-162] | 100% | 100% | 100% | 
CC(NC(=O)c1cc(OC(F)(F)F)cc(C2CC2)c1)c1nc(N(C)C)nn1-c1ccc(C#N)cn1 (stereo not shown) [I-164] | 100% | 100% | 100% | 
CC(NC(=O)c1cc(OC(F)(F)F)cc(C2CC2)c1)c1nc(N(C)C)nn1-c1ncc(Cl)cn1 (stereo not shown) [I-166] | 100% | 100% | 100% | 

Structure (SMILES) | mortality at 500 g/ha [4] | pest or weed control at 32 µg/disc, 100 g/ha [2] | mortality at 100 g/ha [3] | further results
CSc1nc(C(C)NC(=O)c2cc(OC(F)(F)F)cc(S(C)(=O)=O)c2)n(-c2ncc(C#N)s2)n1 (stereo not shown) [I-167, N-{1-[1-(5-cyano-1,3-thiazol-2-yl)-3-(methylsulfanyl)-1H-1,2,4-triazol-5-yl]ethyl}-3-(methylsulfonyl)-5-(trifluoromethoxy)benzamide] | 100% | 100% | 100% | 
CC(NC(=O)c1cc(Cl)cc(S(C)(=O)=O)c1)c1nc(N(C)C)nn1-c1ncc(Cl)cn1 (stereo not shown) [I-171] | 100% |  | 100% | 
C[C@H](NC(=O)c1cc(Br)cc(C(F)(F)F)c1)c1nc(N)nn1-c1ccc(C#N)cn1 [I-172] |  | 100% | 100% | 
C[C@H](NC(=O)c1cc(C(F)(F)F)cc(C(F)(F)F)c1)c1nc(N2CCCC2)nn1-c1ncccn1 [I-190] | 100% | 100% | 100% | 
CC(NC(=O)c1cc(OC(F)(F)F)cc(S(=O)(=O)C(C)C)c1)c1nc(N(C)C)nn1-c1ncc(Cl)cn1 (stereo not shown) [I-191] | 90% | 100% |  | 
CC(NC(=O)c1cc(OC(F)(F)F)cc(S(=O)(=O)C2CC2)c1)c1nc(N(C)C)nn1-c1ncc(Cl)cn1 (stereo not shown) [I-193] | 100% | 100% | 100% | 
CCS(=O)(=O)c1cc(OC(F)(F)F)cc(C(=O)NC(C)c2nc(N(C)C)nn2-c2ncc(Cl)cn2)c1 (stereo not shown) [I-194] | 100% | 100% | 100% | 
CC(NC(=O)c1cc(OC(F)(F)F)cc(C2CC2)c1)c1nc(N2CCCCC2)nn1-c1ncccn1 (stereo not shown) [I-196] | 90% |  |  | 
C[C@H](NC(=O)c1cc(OC(F)(F)F)cc(C2CC2)c1)c1nc(N2CCOCC2)nn1-c1ncc(C#N)s1 [I-197] |  | 100% |  | 
CC(NC(=O)c1cc(Cl)cc(S(C)(=O)=O)c1)c1nc(N2CCCCC2)nn1-c1ncccn1 (stereo not shown) [I-198] |  | 80% |  | 
C[C@H](NC(=O)c1cc(C(F)(F)F)cc(C(F)(F)F)c1)c1nc(N2CCOCC2)nn1-c1ncc(C#N)s1 [I-199] |  | 100% |  | 
C[C@H](NC(=O)c1cc(OC(F)(F)F)cc(C2CC2)c1)c1nc(N2CCCC2)nn1-c1ncccn1 [I-203] | 100% | 100% | 100% | 
C[C@H](NC(=O)c1cc(Cl)cc(C(C)(C)C#N)c1)c1nc(N2CCOCC2)nn1-c1ccc(C#N)cn1 [I-204] | 100% |  | 100% | 
CNc1nc([C@H](C)NC(=O)c2cc(OC(F)(F)F)cc(C3CC3)c2)n(-c2ncc(C#N)s2)n1 [I-206] |  |  | 100% | 
CNc1nc([C@H](C)NC(=O)c2cc(C(F)(F)F)cc(C(F)(F)F)c2)n(-c2ncc(C#N)s2)n1 [I-208] |  |  | 100% | 
CNc1nc([C@H](C)NC(=O)c2cc(Br)cc(OC(F)(F)F)c2)n(-c2ncc(C#N)s2)n1 [I-209] |  |  | 100% | 
CNc1nc([C@H](C)NC(=O)c2cc(Br)cc(Br)c2)n(-c2ncc(C#N)s2)n1 [I-210] |  |  | 100% | 
CNc1nc([C@H](C)NC(=O)c2cc(OC(F)(F)F)cc(S(C)(=O)=O)c2)n(-c2ncc(C#N)s2)n1 [I-212] |  |  | 100% | 

— US20230028441A1, “NOVEL HETEROARYL-TRIAZOLE COMPOUNDS AS PESTICIDES” (Bayer Aktiengesellschaft, priority 2019, published 2023)
